From publication PMC9459017, “Pharmacokinetic and pharmacodynamic similarity evaluation between an insulin glargine biosimilar product and Lantus® in healthy subjects: Pharmacokinetic parameters of both parent insulin glargine and M1 were used as endpoints” (Frontiers in Pharmacology, 2022)

What was measured:
[1] = test system: healthy volunteers; experiment: 24 h euglycemic clamp, glucose infusion rate (pharmacodynamics); format: in vivo, human; conditions: single 0.4 U/kg s.c., N = 38; for AUCGIR(0–24 h), geometric mean / Time to GIRmax / AUCGIR(0–12 h), geometric mean / AUCGIR(12–24 h), geometric mean / GIRmax, geometric mean: healthy volunteers; for AUCGIR(0–24 h), geometric mean: 24 h euglycemic clamp 0.3 mmol/L below fasting glucose; for AUCGIR(0–24 h), geometric mean / AUCGIR(0–12 h), geometric mean / AUCGIR(12–24 h), geometric mean / GIRmax, geometric mean: raw GIR not smoothed; for Time to GIRmax / AUCGIR(0–12 h), geometric mean / AUCGIR(12–24 h), geometric mean / GIRmax, geometric mean: 24 h euglycemic clamp; for Time to GIRmax: median (range); for AUCGIR(0–12 h), intra-subject variability / AUCGIR(0–24 h), intra-subject variability / AUCGIR(12–24 h), intra-subject variability / GIRmax, intra-subject variability: replicate crossover
Text: This PK/PD comparative study was a randomized, double-blind, single-dose, two-treatment, four-period, replicate crossover, euglycemic clamp study. Subjects were randomly assigned to one of two dosing sequences and received 0.4 U/kg reference drug on two occasions and 0.4 U/kg test drug on two occasions. The dosing nurses were not blind to the treatment allocation, whereas the subjects and the clamping operators (who adjusted the glucose infusion rate) were blinded. Subjects were admitted to the clinical research unit on the night before each period. On day 1 of each period, all doses of test and reference drug were administered by subcutaneous injection, and then, subjects underwent a euglycemic clamp procedure until 24 h post-dose. There was a washout period of 10–14 days between study periods. For each subject, the 24 h euglycemic clamp procedure aimed to maintain the clamp value at 0.3 mmol/L below the subject’s mean fasting glucose level in each period. Each subject began fasting from 20:00 on the day prior to dosing in each period and continued fasting during the clamp study. Body weight and vital signs were measured after the bladder was emptied, and the clamp study was performed after resting for at least 30 min. One upper limb was cannulated for the infusion of glucose (20% dextrose solution in water). The contralateral upper limb was cannulated for PK blood sample collection and blood glucose concentration measurement. Blood glucose level was measured by using an automatic blood glucose analyzer every 20 min from 0 to 3.0 h, every 10 min from 3.0 to 12.0 h, every 15 min from 12.0 to 16.0 h, every 30 min from 16.0 to 21.0 h, and every 15 min from 21.0 to 24.0 h. After each glucose measurement, the glucose infusion rate (GIR) was manually adjusted by the operator based on the experience of the change rate of blood glucose to maintain the blood glucose concentration within ±10% of the clamp target. During the entire procedure, subjects should stay awake, decumbent, or semi-decumbent as much as possible and relieve themselves in time with the help of medical staff. PD parameters were calculated with WinNonlin Version 8.2 using the trapezoidal rule. Raw GIR profiles were not smoothed before calculation of PD parameters. Area under the glucose infusion rate–time curve (AUCGIR(0–24 h)) and peak of glucose infusion rate (GIRmax) were measured as primary endpoints. Partial area under the glucose infusion rate–time curve (AUCGIR(0–12 h) and AUCGIR(12–24 h)) was the secondary PD parameter. Another meaningful PD endpoint was time to GIRmax. The primary and secondary PD parameters, AUCGIR(0–24 h), GIRmax, AUCGIR(0–12 h), and AUCGIR(12–24 h), were log transformed prior to analysis. The same linear mixed-effects model as PK comparison was used for the PD comparison. For each PD parameter, the difference in geometric means along with the 90% CIs was back transformed to produce the ratio of geometric means and the CI comparing the test drug to reference drug. PD similarity was to be concluded if the […] for both primary and secondary PD parameters were contained within the interval of 80.00%–125.00%. Intra-subject and inter-subject variability were reported for each primary and secondary PD parameters.

[2] = set-up: species or system human; conditions: in vivo, sc; for Tmax of the parent insulin glargine: human
Text: This PK/PD comparative study was a randomized, double-blind, single-dose, two-treatment, four-period, replicate crossover, euglycemic clamp study. Subjects were randomly assigned to one of two dosing sequences and received 0.4 U/kg reference drug on two occasions and 0.4 U/kg test drug on two occasions. The dosing nurses were not blind to the treatment allocation, whereas the subjects and the clamping operators (who adjusted the glucose infusion rate) were blinded. Subjects were admitted to the clinical research unit on the night before each period. On day 1 of each period, all doses of test and reference drug were administered by subcutaneous injection, and then, subjects underwent a euglycemic clamp procedure until 24 h post-dose. There was a washout period of 10–14 days between study periods. The test drug, manufactured by Wanbang Biopharmaceuticals, was supplied as a 100 U/ml solution in 3 ml cartridges. The reference drug was procured commercially as cartridges. The test drug or reference drug was administrated by subcutaneous injection using a pen about 5 cm from the left or right side of the umbilicus, as a 0.4 U/kg dose. In each period, serial blood samples for the quantification of insulin glargine, its metabolites (M1 and M2), and C-peptide were collected at 30 min prior to dosing and 0, 1, 3, 5, 6, 7, 8, 9, 10, 11, 12, 13, 14, 16, 18, 21, and 24 h after dose using vacuum tubes with an EDTA anticoagulant. Concentrations of insulin glargine and its metabolites (M1 and M2) in plasma were simultaneously quantified by an ultra-high-performance liquid chromatography tandem mass spectrometry (UHPLC-MS/MS) method developed and fully validated before the clinical sample analysis. […] Pharmacokinetic parameters were calculated with WinNonlin Version 8.2 (Pharsight Corporation, Mountain View, California, United States) using a non-compartmental analysis method. […] Time to reach Cmax (Tmax) was also calculated. […]

[3] = test system: healthy subjects; experiment: Safety assessment in healthy subjects; conditions: single 0.4 U/kg s.c. doses, healthy male subjects
Protocol: Prior to dose and at various time points post-dose and post-study, assessments of safety and tolerability were conducted by monitoring adverse events (AEs), vital signs, physical examinations, laboratory tests (hematology, blood biochemistry, urinalysis, and coagulation function), and 12-lead ECG.

[4] = test system: endogenous insulin; experiment: Plasma C-peptide reduction during clamp (suppression of endogenous insulin); format: in vivo, human; conditions: single 0.4 U/kg s.c., healthy volunteers, plasma C-peptide by ELISA during 24 h clamp, mean ± SD
Protocol: In each period, serial blood samples for the quantification of insulin glargine, its metabolites (M1 and M2), and C-peptide were collected at 30 min prior to dosing and 0, 1, 3, 5, 6, 7, 8, 9, 10, 11, 12, 13, 14, 16, 18, 21, and 24 h after dose using vacuum tubes with an EDTA anticoagulant.
C-peptide in plasma was quantified by a fully validated enzyme-linked immunosorbent assay (ELISA) method, of which the calibration range was 28.9–925 pmol/L.
C-peptide concentration was measured in parallel to insulin concentrations throughout the experiment to compare the extent and consistency of suppression of endogenous insulin between the two drugs.
The quality of the performance of the clamp study was estimated from two aspects. On one hand, the blood glucose level during the entire clamping process was evaluated by calculating the mean difference between the blood glucose concentration and the clamp target, mean square deviation, and coefficient of variation of the blood glucose concentrations. On the other hand, the plasma C-peptide concentration profiles and the ratio of C-peptide reduction were evaluated.

[5] = Matrix stability of insulin glargine in whole blood and plasma; format: in vitro ADME; conditions: human whole blood and plasma; addressed by strict temperature control and EDTA anticoagulant during sample collection and pre-treatment
Text: The bioanalytical method applied in this study was with a relatively higher sensitivity of 75.0 pg/ml for the parent insulin glargine ([Bhatia et al., 2018]; [Crutchlow et al., 2018]). The instability of the insulin glargine in whole blood and plasma was addressed by strict temperature control and selection of EDTA anticoagulant during sample collection and pre-treatment. […] After subcutaneous injection, the concentrations of parent insulin glargine increased to a relatively high level within 3 h, and then, a relatively flat concentration–time profile lasting for at least 12 h post-dose was observed, which implied a prolonged absorption of insulin glargine.

[6] = acidic pH; precipitates in the subcutaneous tissue after injection to form a depot; ref Levien et al., 2002; cited from earlier work
Text: Then, the drug is slowly released from the depot. […] These observed phenomena are consistent with those of a previous study ([Bolli et al., 2012]). Based on the comparison ...

[7] = test system: healthy volunteers; experiment: 24 h euglycemic clamp, glucose infusion rate (pharmacodynamics); format: in vivo, human; conditions: single 0.4 U/kg s.c., linear mixed-effects model, N = 38

Row | Substance | AUCGIR(0–24 h), geometric mean [1] [mg/kg/min·h] | Time to GIRmax [1] | AUCGIR(0–12 h), geometric mean [1] [mg/kg/min·h] | AUCGIR(12–24 h), geometric mean [1] [mg/kg/min·h] | GIRmax, geometric mean [1] [mg/kg/min] | AUCGIR(0–12 h), intra-subject variability [1] [%] | AUCGIR(0–24 h), intra-subject variability [1] [%] | AUCGIR(12–24 h), intra-subject variability [1] [%] | GIRmax, intra-subject variability [1] [%] | Tmax of the parent insulin glargine [2] | Clinically significant changes in vital signs, physical examinations, laboratory tests or 12-lead ECG [3] | Safety profiles with regard to AEs [3] | Ratio of C-peptide reduction [4] | Duration of relatively flat concentration–time profile post-dose [2] | Stability in whole blood and plasma [5] | Solubility [6] | AUCGIR(0–12 h), ratio of geometric means test/reference [7] [%] | AUCGIR(0–24 h), ratio of geometric means test/reference [7] [%] | AUCGIR(12–24 h), ratio of geometric means test/reference [7] [%] | GIRmax, ratio of geometric means test/reference [7] [%]
1 | Lantus [Reference drug] | 34.4 | 11.8 (4, 19.0) | 13.45 | 21.19 | 2.54 | 39.0 | 28.3 | 20.2 | 25.5 | 3 (1,16) h | no changes | comparable | 57.5% ± 14.4 |  |  |  |  |  |  | 
2 | insulin glargine |  |  |  |  |  |  |  |  |  |  |  |  |  | at least 12 h | instability | soluble at an acidic pH |  |  |  | 
3 | recombinant insulin glargine [Test drug] | 36.3 | 12.3 (3.85, 21.5) | 13.52 | 22.45 | 2.66 | 70.7 | 36.4 | 27.3 | 26.5 | 8 (1,16) h |  |  | 56.5% ± 14.1 |  |  |  | 100.52 | 105.41 | 105.91 | 105.00
